# Results from US20230337677A1, “ARYL AND PYRIDYL AMIDE PESTICIDES AND COMPOSITIONS THEREOF” (University of Florida Research Foundation, Incorporated, priority 2019, published 2023).
# Tests used:
# [1] = tested on: Aedes aegypti mosquitoes, insecticide-susceptible Orlando strain; type: in vivo; conditions: for 1 h % Repellency, 100 μg/cm^2: screened at 100 μg/cm^2, strain not given; for 1 h Repellency EC50, μg/cm^2: (OR); for vapor repellency / mortality, statement in words (Example 8): structure-activity analysis of Table 2
# Protocol: The tubes as shown were held horizontally on the bench.
# For assessing behavioral repellency (FIG. 1), Aedes aegypti mosquitoes were used from the insecticide-susceptible Orlando strain and the pyrethroid-resistant Puerto Rico strain. Sixteen female mosquitoes were transferred to a glass tube (12.5 cm long, 2.5 cm outer diameter) with the ends covered with netting. Each compound was dissolved in 1 mL of acetone and serial dilutions ranging from 30-0.01 μg/ml were made. Circular filter papers (5 cm^2) were saturated with 50 μL of each concentration and allowed 10 min for solvent evaporation. The filter papers were then placed in clear conical polypropylene caps and fixed to the end of the glass tubes. The netting prevented mosquito contact with the filter paper. The tubes were then aligned with a mark denoting the midline and the proportion of mosquitoes on the chemically treated side was scored for up to 60 min. At the end of the test, the tube was placed in a cage and the ability of the mosquitoes to fly out of the tube was assessed for 30 min. […] This post-test evaluated whether any non-responding mosquitoes (not repelled) resulted from intoxication or disorientation from the test chemical. For assessment of lethality, insects were held for 24 hr under constant exposure in glass tubes having treated filter papers.
# Compounds were first screened at 100 μg/cm^2 for repellency and 24 h mortality.
# [2] = tested on: Aedes aegypti mosquitoes, insecticide-susceptible Orlando strain; assay: whole plant or invertebrate; conditions: 24 h, read-out: 24 h % Mortality, 100 μg/cm^2
SMILES,"1 h % Repellency, 100 μg/cm^2 [1] [%]",mortality at 100 µg/cm2 [2] [%],"1 h Repellency EC50, μg/cm^2 [1] [μg/cm^2]","vapor repellency / mortality, statement in words (Example 8) [1]"
O=C(CCSC(F)(F)F)Nc1ccc(F)cc1 [GMR198],8,0,–,–
O=C(Cc1c(F)c(F)c(F)c(F)c1F)n1nnc2ccccc21 [MT2018-0314-02],6,0,–,–
CC(=O)Nc1ccccc1C(F)(F)F [MTFI-3-2A],80,22,–,–
O=C(Nc1cc(F)c(F)c(F)c1F)C(F)F [MTFI-5-4A],68,0,–,–
CC(SC(F)(F)F)C(=O)Nc1ccc(F)cc1 (centres unmarked) [GMR197],30,0,–,–
CCCC(=O)Nc1c(Cl)cncc1Cl [GMR132],4,28,–,–
CC1(C)[C@H](C=C(Cl)Cl)[C@H]1C(=O)Nc1cc(F)c(F)c(F)c1 [GMR148],12,6,–,–
CC(=O)Nc1cc(F)c(F)c(F)c1 [GMR142],50,66,–,–
CC(=O)Nc1c(Cl)cncc1Cl [GMR130],34,81,–,–
CCCCC(=O)Nc1ccccc1OC(F)(F)F [MTFI-5-8B],96,13,11,–
CN(C(=O)C(F)(F)C(F)(F)OC(F)(F)F)c1cc(F)c(F)c(F)c1 [GMR114],0,6,–,–
CCCCC(=O)Nc1ccccc1CCCC [MTFI-5-8A],38,6,–,–
O=C(Nc1cccc(C(F)(F)F)c1)c1c(F)c(F)c(F)c(F)c1F [MT2018-0316-01],24,0,–,poor results
CCCCCCCCCCC(=O)Nc1ccccc1C(F)(F)F [MTFI-2-1F],6,0,–,–
CN(C(=O)C(F)(F)C(F)(F)C(F)(F)F)c1cc(F)c(F)c(F)c1 [GMR113],0,6,–,–
C#C[C@@H]1[C@@H](C(=O)Nc2cc(F)cc(F)c2)C1(C)C [GMR180],−24,14.3,–,–
Cc1ccccc1C(=O)Nc1cc(C(F)(F)F)cc(C(F)(F)F)c1 [MTFI-3-1E],6,7,–,poor results
O=S(=O)(Nc1c(Cl)cc(C(F)(F)F)cc1Cl)C(F)(F)F [MTFI-5-10A],0,0,–,–
O=C(CBr)Nc1ccccc1C(F)(F)F [MTFI-5-5E],62,60,–,–
O=C(Nc1ccc(F)cc1)C(F)(F)Sc1ccc(F)cc1 [GMR196],18,0,–,–
O=C(CC1CC1)Nc1cccc(C(F)(F)F)c1 [MTFI-5-6C],50,0,–,–
CCC(=O)Nc1cccc(OC(F)(F)F)c1 [GMR160],42,16,123,–
O=C(Nc1cc(F)c(F)c(F)c1F)C(F)(F)C(F)(F)C(F)(F)F [MTFI-5-4E],56,6,–,–
O=C(c1c(F)c(F)c(F)c(F)c1F)n1nnc2ccccc21 [MT2018-0314-01],32,0,–,–
O=C(Nc1ccccc1C(F)(F)F)C(F)(F)C(F)(F)F [MTFI-2-1B],38,0,–,–
C=CC(=O)Nc1ccccc1NC(=O)C=C [GMR024],0,3,–,reduced repellency and poor toxicity
O=C(Cc1c(F)c(F)c(F)c(F)c1F)Nc1cccc(C(F)(F)F)c1 [MT2018-0316-02],6,0,–,–
